Data on 4 compounds can be found in ChEMBL document CHEMBL4393669, “D2 Dopamine Receptor G Protein-Biased Partial Agonists Based on Cariprazine” (J Med Chem, 2019).

For assay [1], the target named is D(2) dopamine receptor (Homo sapiens) (UniProt P14416).
The species named for a further assay is Mus musculus. Particulars: C57.

SMILES strings stand for the structures. The source made the active and inactive calls. No cut-off for these calls is given here.

D(2) dopamine receptor (Homo sapiens), sequence (P14416 whole entry): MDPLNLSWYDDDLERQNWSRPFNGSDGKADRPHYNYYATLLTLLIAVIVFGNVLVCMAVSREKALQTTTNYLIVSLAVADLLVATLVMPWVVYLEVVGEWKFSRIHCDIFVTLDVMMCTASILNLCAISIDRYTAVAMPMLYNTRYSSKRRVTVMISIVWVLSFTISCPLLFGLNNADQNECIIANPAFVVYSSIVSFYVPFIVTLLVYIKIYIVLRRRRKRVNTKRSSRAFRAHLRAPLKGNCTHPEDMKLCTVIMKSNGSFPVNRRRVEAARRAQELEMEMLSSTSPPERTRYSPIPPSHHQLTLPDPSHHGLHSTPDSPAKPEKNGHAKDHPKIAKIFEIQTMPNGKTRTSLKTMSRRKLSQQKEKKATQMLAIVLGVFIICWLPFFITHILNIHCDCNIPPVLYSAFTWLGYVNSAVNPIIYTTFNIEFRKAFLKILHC

In the case of `CN(C)C(=O)NCCCCCN1CCc2ccccc2C1`, the pEC50 entry in assay [1] was “inactive”. As to `CN(C)C(=O)N[C@H]1CC[C@H](CN2CCc3ccccc3C2)CC1`, the pEC50 entry in assay [1] was “inactive”. Regarding `CN(C)C(=O)Nc1ccc(CCN2CCc3ccccc3C2)cc1`, in assay [1], the pEC50 result was “inactive”. Consider `CN(C)C(=O)N[C@H]1CC[C@H](CCN2CCc3cccc(Cl)c3C2)CC1`, for which, in the assay filed under Mus musculus, the Occ result was “Dose-dependent effect”.
